From article PMC8253220, “Molecular design, synthesis and in vitro biological evaluation of thienopyrimidine–hydroxamic acids as chimeric kinase HDAC inhibitors: a challenging approach to combat cancer” (Journal of Enzyme Inhibition and Medicinal Chemistry, 2021)
“And” between values parts separate entries of the source, which are not always exact repeats. Equal values may be shown once.

Legend:
ACHN = assay: NCI one-dose screen; format: cell-based, human; settings: Renal ACHN, 10 µM single dose
Summary of the method: (§1)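 One concentration (10 μM) applied to each line of the full NCI-60 panel; percent growth compared against untreated cells.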

OVCAR-5 = assay: NCI one-dose screen; format: cell-based, human; settings: Ovarian OVCAR-5, 10 µM single dose
Summary of the method: as §1

SW-620 = assay: NCI one-dose screen; format: cell-based, human; settings: Colon SW-620, 10 µM single dose
Summary of the method: (§2)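 At 10 μM, a single concentration, compounds were evaluated for antiproliferative effect in the NCI 60-line screen, with growth expressed relative to untreated control cells.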

MDA-MB-468 = assay: NCI one-dose screen; format: cell-based, human; settings: for Growth Percent: Breast MDA-MB-468, 10 µM single dose
Summary of the method: (§3)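 Single dose of 10 μM tested across the full NCI-60 cell panel. Values are percent growth inhibition relative to untreated control cells, following standard NCI methodology.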

SN12C = assay: NCI one-dose screen; format: cell-based, human; settings: Renal SN12C, 10 µM single dose
Summary of the method: as §1

SK-MEL-5 = assay: NCI one-dose screen; format: cell-based, human; settings: Melanoma SK-MEL-5, 10 µM single dose
Summary of the method: as §1

COLO 205 = assay: NCI one-dose screen; format: cell-based, human; settings: Colon COLO 205, 10 µM single dose
Summary of the method: as §1

T-47D = assay: NCI one-dose screen; format: cell-based, human; settings: Breast T-47D, 10 µM single dose
Summary of the method: as §1

HCC-2998 = assay: NCI one-dose screen; format: cell-based, human; settings: Colon HCC-2998, 10 µM single dose
Summary of the method: as §1

IGROV1 = assay: NCI one-dose screen; format: cell-based, human; settings: Ovarian IGROV1, 10 µM single dose
Summary of the method: as §1

LOX IMVI = assay: NCI one-dose screen; format: cell-based, human; settings: Melanoma LOX IMVI, 10 µM single dose
Summary of the method: as §1

K-562 = assay: NCI one-dose screen; format: cell-based, human; settings: Leukemia K-562, 10 µM single dose
Summary of the method: as §1

NCI-H226 = assay: NCI one-dose screen; format: cell-based, human; settings: for Growth Percent: NSCLC NCI-H226, 10 µM single dose
Summary of the method: (§4)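 Single 10 μM dose, NCI-60 panel; read-out = % growth vs untreated controls → % inhibition.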

MALME-3M = assay: NCI one-dose screen; format: cell-based, human; settings: Melanoma MALME-3M, 10 µM single dose
Summary of the method: as §1

RXF 393 = assay: NCI one-dose screen; format: cell-based, human; settings: Renal RXF 393, 10 µM single dose
Summary of the method: as §1

MDA-MB-231/ATCC = assay: NCI one-dose screen; format: cell-based, human; settings: Breast MDA-MB-231/ATCC, 10 µM single dose
Summary of the method: as §1

EKVX = assay: NCI one-dose screen; format: cell-based, human; settings: NSCLC EKVX, 10 µM single dose
Summary of the method: as §4

MCF7 = assay: NCI one-dose screen; format: cell-based, human; settings: Breast MCF7, 10 µM single dose
Summary of the method: as §3

UACC-257 = assay: NCI one-dose screen; format: cell-based, human; settings: Melanoma UACC-257, 10 µM single dose
Summary of the method: as §2

SK-OV-3 = assay: NCI one-dose screen; format: cell-based, human; settings: Ovarian SK-OV-3, 10 µM single dose
Summary of the method: as §1

NCI-H460 = assay: NCI one-dose screen; format: cell-based, human; settings: NSCLC NCI-H460, 10 µM single dose
Summary of the method: as §1

HOP-62 = assay: NCI one-dose screen; format: cell-based, human; settings: NSCLC HOP-62, 10 µM single dose
Summary of the method: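 Following the standard NCI-60 protocol, compounds were applied once at 10 μM to all 60 cancer lines. Read-out is percent growth versus untreated controls, expressed as inhibition %.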

PC-3 = assay: NCI one-dose screen; format: cell-based, human; settings: Prostate PC-3, 10 µM single dose
Summary of the method: as §2

EGFR = EGFR (Homo sapiens, UniProt P00533); assay: In vitro EGFR tyrosine kinase inhibitory assay (Z'-LYTE, SelectScreen); format: biochemical
Sequence of EGFR (P00533 25-1210): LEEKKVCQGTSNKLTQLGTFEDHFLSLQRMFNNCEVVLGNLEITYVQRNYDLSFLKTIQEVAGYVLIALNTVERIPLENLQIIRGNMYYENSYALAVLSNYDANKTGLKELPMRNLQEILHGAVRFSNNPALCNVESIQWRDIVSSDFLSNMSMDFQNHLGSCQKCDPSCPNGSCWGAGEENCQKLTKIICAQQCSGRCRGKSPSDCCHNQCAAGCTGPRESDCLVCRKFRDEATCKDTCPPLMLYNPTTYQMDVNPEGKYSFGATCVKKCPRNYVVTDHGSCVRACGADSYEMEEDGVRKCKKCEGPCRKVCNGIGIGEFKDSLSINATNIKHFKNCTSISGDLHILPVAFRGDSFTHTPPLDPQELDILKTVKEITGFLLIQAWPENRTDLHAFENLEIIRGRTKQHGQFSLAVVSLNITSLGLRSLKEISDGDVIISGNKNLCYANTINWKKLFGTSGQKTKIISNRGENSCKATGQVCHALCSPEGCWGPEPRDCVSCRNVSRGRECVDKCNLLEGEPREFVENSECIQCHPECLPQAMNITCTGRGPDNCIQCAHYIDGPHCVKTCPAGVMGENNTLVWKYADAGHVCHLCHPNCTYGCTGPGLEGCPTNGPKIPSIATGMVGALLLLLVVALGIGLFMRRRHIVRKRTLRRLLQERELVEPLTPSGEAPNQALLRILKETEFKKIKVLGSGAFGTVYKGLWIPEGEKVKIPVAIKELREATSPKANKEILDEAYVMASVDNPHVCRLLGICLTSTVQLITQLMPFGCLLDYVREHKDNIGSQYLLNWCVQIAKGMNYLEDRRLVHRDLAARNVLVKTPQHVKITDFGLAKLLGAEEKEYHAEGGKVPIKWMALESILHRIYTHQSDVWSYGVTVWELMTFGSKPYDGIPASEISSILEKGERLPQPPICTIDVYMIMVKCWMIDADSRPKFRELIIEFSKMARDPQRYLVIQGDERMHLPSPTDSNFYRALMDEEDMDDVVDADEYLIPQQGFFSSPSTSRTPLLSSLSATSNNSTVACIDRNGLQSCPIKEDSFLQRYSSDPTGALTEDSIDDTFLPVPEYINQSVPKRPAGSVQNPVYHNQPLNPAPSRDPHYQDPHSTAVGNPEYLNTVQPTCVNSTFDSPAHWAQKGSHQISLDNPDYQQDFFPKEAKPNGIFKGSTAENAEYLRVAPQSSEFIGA
Summary of the method: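 Z'-LYTE fluorescence coupled-enzyme format, read-out based on differential protease cleavage of phosphorylated vs non-phosphorylated peptide. Compounds screened at 10 µM single dose for % inhibition, then selected ones tested at 0.1 nM–10 µM for IC50 by curve fitting.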

full NCI 60 cell panel = assay: NCI one-dose screen, whole panel statistics; format: cell-based, human; settings: 1.00E-5 Molar; for Mean Growth Percent: mean over panel
Summary of the method: as §2

Structure (SMILES)	Growth Percent (ACHN)	Growth Percent (OVCAR-5)	Growth Percent (SW-620)	Growth Percent (MDA-MB-468)	Growth Percent (SN12C)	Growth Percent (SK-MEL-5)	Growth Percent (COLO 205)	Growth Percent (T-47D)	Growth Percent (HCC-2998)	Growth Percent (IGROV1)	Growth Percent (LOX IMVI)	Growth Percent (K-562)	Growth Percent (NCI-H226)	Growth Percent (MALME-3M)	Growth Percent (RXF 393)	Growth Percent (MDA-MB-231/ATCC)	Growth Percent (EKVX)	Growth Percent (MCF7)	Growth Percent (UACC-257)	Growth Percent (SK-OV-3)	also measured
Cc1c(C(=O)NCCC(=O)NO)sc2ncnc(Nc3ccc(Cl)cc3)c12 [Compound 19c, 4–(4-chlorophenylamino)-N-(3-(hydroxyamino)-3-oxopropyl)-5-methylthieno[2,3-d]pyrimidine-6-carboxamide]	106.8% and 106.82%	110.3% and 110.34%	102.5% and 102.53%	119.7% and 119.73%	101.7% and 101.77%	102.4% and 102.44%	115.7% and 115.76%	106.95%	105.3% and 105.39%	105.4% and 105.45%	98.8% and 98.82%	106.4% and 106.41%	106.8% and 106.83%	104.5% and 104.57%	109.2% and 109.21%	104.1% and 104.18%	98.4% and 98.49%	93.4%	115.4%	120.6% and 120.62%	Growth Percent (NCI-H460): 100.4% and 100.45%; Growth Percent (HOP-62): 105.8% and 105.87%; Growth Percent (PC-3): 110.4% and 110.47%; melting point: 282 °C; inhibition at 10 µM (EGFR; 10 µM single dose): 78%; Delta (one dose mean graph) (full NCI 60 cell panel): 24.83%; Range (one dose mean graph) (full NCI 60 cell panel): 44.72%; Mean Growth Percent (full NCI 60 cell panel): 104.82%
Cc1c(C(=O)NCCC(=O)NO)sc2ncnc(Nc3ccc(NC(=O)Nc4ccccc4)cc3)c12 [Compound 11a, 1–(4-(6-((3-(hydroxyamino)-3-oxopropyl)carbamoyl)-5-methylthieno[2,3-d]pyrimidin-4-ylamino)phenyl)-3-phenylurea]	101.6% and 101.68%	106.2% and 106.26%	103.0% and 103.02%	101.3% and 101.31%	101.4% and 101.42%	99.1% and 99.18%	113.5% and 113.57%	107.7% and 107.73%	98.0% and 98.02%	103.0% and 103.03%	95.3% and 95.38%	108.3% and 108.34%	90.4% and 90.42%	103.6% and 103.62%	107.3% and 107.33%	97.6% and 97.67%	94.6% and 94.62%	92.3%	101.0% and 101.08%	123.7% and 123.79%	Growth Percent (NCI-H460): 101.8% and 101.81%; Growth Percent (HOP-62): 102.3% and 102.39%; Growth Percent (PC-3): 101.7% and 101.73%; melting point: 225 °C; inhibition at 10 µM (EGFR; 10 µM single dose): 12%; Delta (one dose mean graph) (full NCI 60 cell panel): 21.26%; Range (one dose mean graph) (full NCI 60 cell panel): 44.07%; Mean Growth Percent (full NCI 60 cell panel): 100.98%
Cc1c(C(=O)NCCCC(=O)NO)sc2ncnc(Nc3ccc(F)c(Cl)c3)c12 [Compound 20d, 4–(3-chloro-4-fluorophenylamino)-N-(4-(hydroxyamino)-4-oxobutyl)-5-methylthieno[2,3-d]pyrimidine-6-carboxamide]	102.2% and 102.28%	100.1% and 100.15%	103.1% and 103.17%	83.8% and 83.88%	103.5% and 103.55%	100.4% and 100.45%	119.1% and 119.14%	112.6% and 112.64%	104.1% and 104.19%	98.9% and 98.94%	96.3%	117.4% and 117.47%	88.7% and 88.71%	115.8% and 115.88%	102.5% and 102.57%	99.7% and 99.77%	94.4% and 94.41%	91.4% and 91.48%	103%	122.6% and 122.66%	inhibition at 10 µM (MDA-MB-468; Homo sapiens, breast MDA-MB-468, 10 μM): 16.2%; inhibition at 10 µM (NCI-H226; Homo sapiens, NSCLC NCI-H226, 10 μM): 11.3%; Growth Percent (NCI-H460): 101.8% and 101.82%; Growth Percent (HOP-62): 105.6% and 105.66%; Growth Percent (PC-3): 105.3% and 105.36%; melting point: 244 to 246 °C; inhibition at 0.0001 µM (EGFR; 0.1 nM compound, 10 μM ATP, read-out: % Inhibition mean, EGFR (ErbB1)): 1%; inhibition at 0.001 µM (EGFR; 1 nM compound, 10 μM ATP, read-out: % Inhibition mean, EGFR (ErbB1)): 5%; inhibition at 0.01 µM (EGFR; 10 nM compound, 10 μM ATP, read-out: % Inhibition mean, EGFR (ErbB1)): 14%; inhibition at 0.1 µM (EGFR; 100 nM compound, 10 μM ATP, read-out: % Inhibition mean, EGFR (ErbB1)): 58%; inhibition at 1 µM (EGFR; 1000 nM compound, 10 μM ATP, read-out: % Inhibition mean, EGFR (ErbB1)): 93%; Mean % inhibition EGFR (EGFR; 10 µM single dose): 96%; inhibition at 10 µM (EGFR; 10 µM single dose): 97%; IC50 (EGFR; read-out: IC50 in enzyme assays EGFR): 68 nM; Delta (one dose mean graph) (full NCI 60 cell panel): 26.89%; Range (one dose mean graph) (full NCI 60 cell panel): 47.82%; Mean Growth Percent (full NCI 60 cell panel): 103.21%
